Where “and” joins values, the source holds several entries; their conditions need not be identical. Equal entries are not always repeated. One block for each compound: values may come before it. Positions of bridges follow the written chain, without caps; N, C: chain ends. Non-standard residues stand in square brackets, D forms with d. Residues, ends and D or L forms follow the SMILES beside them. NMeF = CN[C@@H](Cc1ccccc1)C(=O)O; NMeNle = CCCC[C@H](NC)C(=O)O; Sar = CNCC(=O)O
Key:
[1] = molecular target: PD-L1 on MC38 huPD-L1 tumors (Homo sapiens, UniProt Q9NZQ7); experiment: PD-L1 levels on MC38 huPD-L1 tumors; assay type: in vivo, mouse; conditions: 200 mg/kg, clone MIH1
PD-L1 on MC38 huPD-L1 tumors, sequence (Q9NZQ7 19-290): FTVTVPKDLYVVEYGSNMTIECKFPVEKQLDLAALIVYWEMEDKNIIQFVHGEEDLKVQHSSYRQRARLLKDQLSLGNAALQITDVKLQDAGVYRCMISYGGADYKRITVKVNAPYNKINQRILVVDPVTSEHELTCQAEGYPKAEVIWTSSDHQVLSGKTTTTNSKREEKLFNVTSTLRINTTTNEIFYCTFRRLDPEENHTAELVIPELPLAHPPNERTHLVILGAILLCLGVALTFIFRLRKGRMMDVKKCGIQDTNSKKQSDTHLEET

[2] = system: PD-1–mediated SHP recruitment; experiment: PD-1–SHP reporter assay; assay type: cell-based; conditions: read-out: IC50, SHP recruitment
target lesion = experiment: Clinical activity in phase I study; assay type: in vivo, human; conditions: patient, week 24
[3] = molecular target: Human PD-L1-FLAG tag protein (Homo sapiens, UniProt Q9NZQ7); experiment: SPR antibody competition; assay type: binding; conditions: 1 µM
Human PD-L1-FLAG tag protein, sequence (Q9NZQ7 19-290): as above

PD-L1 (aa 19-239) [4] = molecular target: T1, PD-L1 (aa 19-239) (Homo sapiens, UniProt Q9NZQ7); experiment: Isothermal titration calorimetry; assay type: binding
T1 sequence (Q9NZQ7 19-239): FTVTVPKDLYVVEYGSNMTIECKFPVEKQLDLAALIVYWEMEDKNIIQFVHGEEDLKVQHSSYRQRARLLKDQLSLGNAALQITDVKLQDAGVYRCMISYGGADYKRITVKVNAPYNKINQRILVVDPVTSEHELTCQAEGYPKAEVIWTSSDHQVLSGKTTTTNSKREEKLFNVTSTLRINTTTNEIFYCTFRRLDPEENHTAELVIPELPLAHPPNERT

PD-L1 on CHO PD-L1 cells [5] = molecular target: T2, PD-L1 on CHO PD-L1 cells (Homo sapiens, UniProt Q9NZQ7); experiment: Unoccupied and total PD-L1 by flow cytometry; assay type: cell-based; conditions: 18 hours
T2 sequence (Q9NZQ7 19-290): as the sequence (Q9NZQ7 19-290) above

PD-L1 on CHO PD-L1 cells [6] = molecular target: T2, PD-L1 on CHO PD-L1 cells; experiment: Cell-based PD-1 binding assay; conditions: concentrations ≥160 nmol/L
PD-L1 [7] = molecular target: T3, PD-L1 (Homo sapiens, UniProt Q9NZQ7); experiment: PD-L1/PD-1 HTRF binding assay, human PD-L1
Target sequence in this assay (Q9NZQ7 19-238 limits assumed): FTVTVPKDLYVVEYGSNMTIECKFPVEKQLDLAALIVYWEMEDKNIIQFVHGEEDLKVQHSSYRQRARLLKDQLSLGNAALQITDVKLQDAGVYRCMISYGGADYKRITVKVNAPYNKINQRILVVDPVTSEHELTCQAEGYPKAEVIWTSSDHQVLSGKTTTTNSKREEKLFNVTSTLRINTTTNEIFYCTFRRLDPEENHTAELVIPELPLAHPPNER

PD-L1 in CHO PD-L1 cells [8] = molecular target: T4, PD-L1 in CHO PD-L1 cells (Homo sapiens, UniProt Q9NZQ7); experiment: Total PD-L1 by Western blot; assay type: cell-based; conditions: 0.2 or 1 µM
T4 sequence (Q9NZQ7 19-290): as the sequence (Q9NZQ7 19-290) above

[9] = system: human T cells with CHO PD-L1 cells; experiment: Artificial antigen-presenting cell system, IFNγ secretion; assay type: cell-based; conditions: for Maximal levels of IFNγ, induction: atezolizumab at 10 nmol/L
PD-L1 on monocytes [10] = molecular target: T5, PD-L1 on monocytes (Homo sapiens, UniProt Q9NZQ7); experiment: Unoccupied PD-L1 on monocytes in human whole blood; assay type: cell-based
T5 sequence (Q9NZQ7 19-290): as above

cynomolgus PD-L1 = cynomolgus PD-L1 (Macaca fascicularis, UniProt G7PSE7); experiment: PD-L1/PD-1 HTRF binding assay, cynomolgus PD-L1
cynomolgus PD-L1, sequence (G7PSE7 19-239): as the sequence (Q9NZQ7 19-239) above, with A33T, A34S, S62N, R68Q, Q82R, F173L, T185A, T192I, H215L counted along it
cynomolgus PD-L1, sequence (Q15116 25-167 partner): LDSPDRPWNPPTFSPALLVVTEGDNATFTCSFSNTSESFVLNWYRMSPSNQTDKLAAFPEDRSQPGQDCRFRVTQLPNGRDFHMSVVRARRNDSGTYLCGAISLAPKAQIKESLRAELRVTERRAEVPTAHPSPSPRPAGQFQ

PD-L1 on CHO PD-L1 cells [11] = molecular target: T2, PD-L1 on CHO PD-L1 cells; experiment: Live-cell imaging of PD-L1 internalization; assay type: cell-based; conditions: 1 µmol/L
Tolerability in mice = conditions: mouse, in vivo
PD-L1 on monocytes [12] = molecular target: PD-L1 on monocytes (Macaca fascicularis, UniProt G7PSE7); experiment: Unoccupied PD-L1 on monocytes in cynomolgus whole blood; assay type: cell-based, cynomolgus monkey; conditions: read-out: EC50, reducing unoccupied cell-surface PD-L1 on monocytes
PD-L1 on monocytes (Macaca fascicularis, UniProt G7PSE7), sequence (G7PSE7 19-290): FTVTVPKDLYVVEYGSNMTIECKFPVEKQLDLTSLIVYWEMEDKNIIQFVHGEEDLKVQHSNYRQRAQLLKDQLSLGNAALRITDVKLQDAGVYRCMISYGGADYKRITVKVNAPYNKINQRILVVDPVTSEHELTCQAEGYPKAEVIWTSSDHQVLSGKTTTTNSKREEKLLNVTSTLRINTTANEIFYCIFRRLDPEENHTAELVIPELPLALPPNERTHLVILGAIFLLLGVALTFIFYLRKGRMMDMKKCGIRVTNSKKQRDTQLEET

mouse PD-L1 = mouse PD-L1 (Mus musculus, UniProt Q9EP73); experiment: PD-L1/PD-1 HTRF binding assay, mouse PD-L1
mouse PD-L1, sequence (Q9EP73 19-238 limits assumed): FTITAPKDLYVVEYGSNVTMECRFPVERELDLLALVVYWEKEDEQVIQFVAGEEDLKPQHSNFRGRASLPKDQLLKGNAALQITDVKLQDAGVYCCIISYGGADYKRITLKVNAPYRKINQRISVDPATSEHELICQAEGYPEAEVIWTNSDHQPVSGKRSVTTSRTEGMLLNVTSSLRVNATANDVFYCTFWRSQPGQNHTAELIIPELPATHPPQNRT

MC38 huPD-L1 tumors [13] = experiment: MC38 huPD-L1 tumor efficacy in NSG mice; assay type: in vivo, mouse; conditions: NSG mice, 2, 20, 200 mg/kg b.i.d.
human PD-L2 = human PD-L2 (Homo sapiens, UniProt Q9BQ51); experiment: PD-L2/PD-1 HTRF binding assay
human PD-L2, sequence (Q9BQ51 20-219 limits assumed): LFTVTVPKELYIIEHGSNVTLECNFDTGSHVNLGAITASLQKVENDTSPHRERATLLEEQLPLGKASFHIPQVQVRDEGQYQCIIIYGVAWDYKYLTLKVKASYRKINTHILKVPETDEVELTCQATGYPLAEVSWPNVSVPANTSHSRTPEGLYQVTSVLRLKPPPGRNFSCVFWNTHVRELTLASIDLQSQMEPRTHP

rat PD-L1 = rat PD-L1 (Rattus norvegicus, UniProt D4AE25); experiment: PD-L1/PD-1 HTRF binding assay, rat PD-L1; conditions: human PD-1
rat PD-L1, sequence (D4AE25 19-238): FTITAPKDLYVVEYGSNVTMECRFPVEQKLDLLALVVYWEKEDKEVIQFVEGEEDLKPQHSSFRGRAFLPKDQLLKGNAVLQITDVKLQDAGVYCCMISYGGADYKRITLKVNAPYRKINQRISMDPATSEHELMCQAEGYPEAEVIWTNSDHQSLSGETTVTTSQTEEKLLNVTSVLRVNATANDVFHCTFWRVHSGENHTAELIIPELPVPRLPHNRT
rat PD-L1, sequence (Q15116 25-167 partner): as the sequence (Q15116 25-167 partner) above

PD-L1 [14] = molecular target: T3, PD-L1; experiment: Flow cytometry competition with anti–PD-L1 mAbs on CHO PD-L1 cells; assay type: cell-based; conditions: 1 µmol/L
Target sequence in this assay (Q9NZQ7 19-290): as the sequence (Q9NZQ7 19-290) above

[15] = molecular target: human PD-L1 on MBT2 clones (Homo sapiens, UniProt Q9NZQ7); experiment: Isogenic MBT2 cell line PD-L1 internalization; assay type: cell-based; conditions: EC50, PD-L1 internalization (MIH1), 16 hours
human PD-L1 on MBT2 clones, sequence (Q9NZQ7 19-127 limits assumed): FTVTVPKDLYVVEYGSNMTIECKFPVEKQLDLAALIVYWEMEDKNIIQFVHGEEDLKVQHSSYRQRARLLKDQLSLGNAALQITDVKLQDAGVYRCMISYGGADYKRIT

PD-L1 on monocytes [16] = molecular target: T5, PD-L1 on monocytes; experiment: Available PD-L1 on monocytes from clinical study patients; assay type: in vivo
[17] = 28-day toxicology study in rats; assay type: in vivo, rat
[18] = 28-day toxicology study in monkeys; assay type: in vivo, monkey
[19] = system: plasma CXCL9, CXCL10, IFNγ, PD-L1; experiment: Proteins in peripheral blood of phase I patients; assay type: in vivo, human
NFAT signaling = experiment: NFAT reporter assay; assay type: cell-based; conditions: read-out: NFAT activation (IC50 in Table 1, EC50 in text)
MDA-MB-231 tumors = experiment: MDA-MB-231 tumor efficacy in NSG mice; assay type: in vivo, mouse; conditions: 20 mg/kg
MC38 huPD-L1 tumors [20] = experiment: MC38 huPD-L1 tumor efficacy in C57BL/6 mice; assay type: in vivo, mouse
PD-L1 (aa 19-239) [21] = molecular target: T1, PD-L1 (aa 19-239); experiment: SEC-MALS of PD-L1 complexes; assay type: binding; conditions: 15 µmol/L PD-L1, 100 µmol/L compound
PD-L1 in CHO PD-L1 cells [22] = molecular target: T4, PD-L1 in CHO PD-L1 cells; experiment: Confocal microscopy of PD-L1 internalization; assay type: cell-based; conditions: 18 hours, INCB086550 1 µmol/L, atezolizumab 10 µg/mL
[23] = all tested doses up to 1,000 mg/kg

Compound: Cc1c(Nc2nccc3cc(CN4CC[C@@H](O)C4)cnc23)cccc1-c1cccc(-c2nc3cc(CN4CC[C@@H](C(=O)O)C4)cc(C#N)c3o2)c1C [INCB086550]
Maximum reduction of occupied PD-L1 [1]: > 90%
IC50 [2]: 6.3 ± 2.5 nM
Preliminary clinical activity (target lesion): decrease in target lesion volume
Binding of atezolizumab and durvalumab to PD-L1 (SPR) [3]: inhibited binding
Binding stoichiometry n (ITC) (PD-L1 (aa 19-239) [4]): 0.6
Epitope occupancy of PD-L1, clone MIH1 (PD-L1 on CHO PD-L1 cells [5]): > 90%
Reduction of PD-L1 staining, clone 28-8 (total cell-surface PD-L1) (PD-L1 on CHO PD-L1 cells [5]): approximately 70%
Inhibition of PD-1/PE binding (PD-L1 on CHO PD-L1 cells [6]): > 90%
IC50 (PD-L1 [7]): 3.1 ± 1.2 nM
Change in total PD-L1 in cells (PD-L1 in CHO PD-L1 cells [8]): decrease of overall PD-L1
Maximal levels of IFNγ, induction [9]: 425%
Toxicity to cells ([9]; cell-based assays): No overt toxicity
EC50 (PD-L1 on monocytes [10]): 88 nM
IC90 (PD-L1 on monocytes [10]; read-out: whole blood IC90): 792 nM
IC50 (cynomolgus PD-L1): 4.9 ± 1.6 nM
Time to maximal PD-L1 internalization (PD-L1 on CHO PD-L1 cells [11]): ~4 h
Adverse effects in mice (Tolerability in mice): no adverse effects
EC50 (PD-L1 on monocytes [12]): 4.5 nM
IC50 (mouse PD-L1): > 10000 nM
Binding to mouse PD-L1 (mouse PD-L1; HTRF): not detected
Antitumor activity in immunodeficient mice (MC38 huPD-L1 tumors [13]): abolished
IC50 (human PD-L2): > 10000 nM
Inhibition of binding of PD-L2 to human PD-1 (human PD-L2; concentrations up to 10 µmol/L): not inhibited
IC50 (rat PD-L1): 1.9 nM and < 1.5 nM
Binding of atezolizumab and durvalumab to PD-L1 after pretreatment (PD-L1 [14]): blocked binding
EC50 ([15]; MBT2-PD-L1 high): 0.1 nM
EC50 ([15]; MBT2-PD-L1 low): 3.7 nM
EC50 ([15]; MBT2-PD-L1 medium): 0.4 nM
Dose reaching maximum inhibition of free PD-L1 (PD-L1 on monocytes [16]): 200 mg b.i.d.
Dose at which associated events were observed (minimal to mild, nonadverse) [17]: 1,000 mg/kg/day
Tolerability [17, 23]: well tolerated
Tolerability [18, 23]: well tolerated
Doses with emesis ([18]; no evidence of target organ toxicity): ≥ 200 mg/kg/day
Increase in plasma cell-free PD-L1 vs baseline ([19]; all dose levels, cycle 2 day 1): 1.4 fold
Increase in plasma IFNγ vs baseline ([19]; cycle 1 day 8): 3.8 fold
Increase in plasma CXCL9 vs baseline ([19]; cycle 2 day 1): 1.8 fold
Increase in plasma CXCL10 vs baseline ([19]; cycle 2 day 1): 1.4 fold
EC50 (NFAT signaling): 21.4 ± 8.4 nM
Antitumor activity in immunodeficient mice (MDA-MB-231 tumors): abolished
tumor growth inhibition (TGI) (MC38 huPD-L1 tumors [20]; 2 mg/kg p.o. b.i.d., day 16): 32%
tumor growth inhibition (TGI) (MC38 huPD-L1 tumors [20]; 20 mg/kg p.o. b.i.d., day 16): 66%
tumor growth inhibition (TGI) (MC38 huPD-L1 tumors [20]; 200 mg/kg p.o. b.i.d., day 16): 69%
SEC-MALS peak of PD-L1 in presence of compound (PD-L1 (aa 19-239) [21]): ~69 kDa
PD-L1 internalization, clone 28-8 staining (PD-L1 in CHO PD-L1 cells [22]): internalization of PD-L1 and increased cytoplasmic staining

SEC-MALS peak of PD-L1 in presence of compound (PD-L1 (aa 19-239) [21]): approximately 33 kDa
Compound: CCCC[C@H]1C(=O)N(C)CC(=O)N[C@@H](CC(=O)O)C(=O)N[C@@H](C(C)C)C(=O)N(C)[C@@H](Cc2ccccc2)C(=O)N[C@@H](Cc2ccc(O)cc2)C(=O)N(C)CC(=O)N[C@@H](Cc2c[nH]c3ccccc23)C(=O)N[C@@H](Cc2ccc(O)cc2)C(=O)N[C@@H](CC(C)C)C(=O)N[C@H](C(=O)NCC(N)=O)CSCC(=O)N[C@@H](Cc2ccccc2)C(=O)N(C)[C@@H](Cc2ccccc2)C(=O)N1C [peptide 71, reference compound] ({CH2CO}-F[NMeF][NMeNle][Sar]DV[NMeF]Y[Sar]WYLCG-NH2; thioether N-13; N-terminus and C-terminus assumed)

Compound: atezolizumab: clinical anti–PD-L1 monoclonal antibody [reference compound]
Maximal levels of IFNγ, induction [9]: 433%
tumor growth inhibition (TGI) (MC38 huPD-L1 tumors [20]; 5 mg/kg intraperitoneally every 5 days): 73%
PD-L1 internalization, clone 28-8 staining (PD-L1 in CHO PD-L1 cells [22]): only minor levels of PD-L1 internalization
